In patent publication US20230398130A1, “METHODS AND COMPOSITIONS FOR DIFFERENTIATING STEM CELLS” (Massachusetts Institute of Technology, priority 2020, published 2023):
Counter-ions that a name gives are not always drawn.

Tested on: ISC-enriched organoids
Assay: Primary screen, 384-well 2.5-D organoid differentiation (ENR+CD, 6 days, Target Selective Inhibitor Library, vs whole-plate median): ATP (CellTiter-Glo 3D, CTG)
[1] = Dose 0.08 uM, standard z score of FC
[2] = Dose 0.40 uM, standard z score of FC
[3] = Dose 2.00 uM, standard z score of FC
[4] = Dose 10.00 uM, standard z score of FC
[5] = primary screen, dose 0.08 uM, standard z score of FC
[6] = primary screen, dose 0.40 uM, standard z score of FC
[7] = primary screen, dose 2.00 uM, standard z score of FC
[8] = primary screen, dose 10.00 uM, standard z score of FC
[9] = Dose 0.40 uM, primary screen, standard z score
[10] = Dose 2.00 uM, primary screen, standard z score
[11] = Dose 10.00 uM, primary screen, standard z score

In the case of `Cc1c(Cc2ccc3ccccc3n2)c2cc(F)ccc2n1CC(=O)O` [OC000459], the Z.CTG [1] is reported as 0.184, the Z.CTG [2] is reported as −0.155 and the Z.CTG [3] is reported as 0.210. It also gave a Z.CTG [4] of 0.211.
`CC(=O)Nc1nc2c(Oc3cc(-c4ccc(C(F)(F)F)cc4)ncn3)cccc2s1` [AMG-517] showed a Z.CTG [5] of 0.385, a Z.CTG [6] of 0.269 and a Z.CTG [7] of 0.268. For the same molecule, the Z.CTG [8] was 0.135.
`CCC(=O)NCC[C@@H]1CCc2ccc3c(c21)CCO3` [Ramelteon] was tested, and the “Z.CTG (standard z score)” value (Dose 0.08 uM, primary screen) was −0.066, the “Z.CTG (standard z score)” value (Dose 0.40 uM, primary screen) was 0.369 and the “Z.CTG (standard z score)” value (Dose 2.00 uM, primary screen) was −0.752. The “Z.CTG (standard z score)” value (Dose 10.00 uM, primary screen) was 0.358.
Work on `O=c1cc(-c2ccc(O)cc2)oc2cc(O)cc(O)c12` [Apigenin] yielded a Z.CTG [5] of 0.588, a Z.CTG [6] of 0.510 and a Z.CTG [7] of 0.753. The Z.CTG [8] was 0.063.
With `OC(CNCC(O)C1CCc2cc(F)ccc2O1)C1CCc2cc(F)ccc2O1` (stereo not shown) [Nebivolol] the Z.CTG [1] was 0.926, the Z.CTG [2] was 0.526 and the Z.CTG [3] was 0.746. For the same molecule, the Z.CTG [4] was 0.499.
Work on `Oc1ncnc2[nH]ncc12` [Allopurinol] yielded a Z.CTG [5] of 0.506, a Z.CTG [6] of −0.234 and a Z.CTG [7] of −0.387. It also gave a Z.CTG [8] of −1.085.
In the case of `Cc1cc2c(cc1CC(=O)c1sccc1S(=O)(=O)Nc1onc(C)c1Cl)OCO2` [Sitaxentan sodium], the “Z.CTG (standard z score)” value (Dose 0.08 uM, primary screen) is reported as 0.226, the “Z.CTG (standard z score)” value (Dose 0.40 uM, primary screen) is reported as −0.478 and the “Z.CTG (standard z score)” value (Dose 2.00 uM, primary screen) is reported as −0.230. For the same molecule, the “Z.CTG (standard z score)” value (Dose 10.00 uM, primary screen) was −0.240.
`COc1ccc2c(c1)C(=O)N(CCc1ccc(S(=O)(=O)NC(=O)NC3CCCCC3)cc1)C(=O)C2(C)C` [Gliquidone] showed a Z.CTG [1] of 0.297, a Z.CTG [9] of 0.247 and a Z.CTG [10] of 0.588. It also gave a Z.CTG [11] of 0.320.
`CCO[C@@H]1OC(=O)C[C@@H]1NC(=O)[C@@H]1CCCN1C(=O)[C@@H](NC(=O)c1ccc(N)c(Cl)c1)C(C)(C)C` [VX-765] was tested, and the “Z.CTG (standard z score)” value (dose 0.08 uM) was 0.368, the “Z.CTG (standard z score)” value (dose 0.40 uM) was 0.555 and the “Z.CTG (standard z score)” value (dose 2.00 uM) was 0.393. For the same molecule, the “Z.CTG (standard z score)” value (dose 10.00 uM) was 0.608.
With `Cc1c(C(=O)NN2CCCCC2)nn(-c2ccc(Cl)cc2Cl)c1-c1ccc(Cl)cc1` [Rimonabant] the “Z.CTG (standard z score)” value (Dose 0.08 uM, primary screen) was 0.611, the “Z.CTG (standard z score)” value (Dose 0.40 uM, primary screen) was 0.492 and the “Z.CTG (standard z score)” value (Dose 2.00 uM, primary screen) was 0.561. The “Z.CTG (standard z score)” value (Dose 10.00 uM, primary screen) was 0.152.
`O=C(O)/C=C/c1ccc(Cn2ccnc2)cc1` [Ozagrel] showed a Z.CTG [1] of 0.131, a Z.CTG [2] of 0.535 and a Z.CTG [3] of −0.149. The Z.CTG [4] was 0.271.
In the case of `CC(C)N(CCCNC(=O)Nc1ccc(C(C)(C)C)cc1)C[C@H]1O[C@@H](n2cc(Br)c3c(N)ncnc32)[C@H](O)[C@@H]1O` [SGC0946], the “Z.CTG (standard z score)” value (Dose 0.08 uM, primary screen) is reported as 0.124, the “Z.CTG (standard z score)” value (Dose 0.40 uM, primary screen) is reported as −0.290 and the “Z.CTG (standard z score)” value (Dose 2.00 uM, primary screen) is reported as −0.197. For the same molecule, the “Z.CTG (standard z score)” value (Dose 10.00 uM, primary screen) was −0.340.
`CN1C2CCCC1CC(NC(=O)c1nn(C)c3ccccc13)C2` (stereo not shown) [Granisetron HCl] was tested, and the Z.CTG (Dose 0.08 uM, primary screen, standard z score) was −0.512, the Z.CTG [9] was −0.205 and the Z.CTG [10] was −0.426. The Z.CTG [11] was −0.710.
`Cc1c(Cl)cccc1Nc1ccccc1C(=O)O` [Tolfenamic Acid] was tested, and the “Z.CTG (standard z score)” value (dose 0.08 uM) was 0.467, the “Z.CTG (standard z score)” value (dose 0.40 uM) was −0.007 and the “Z.CTG (standard z score)” value (dose 2.00 uM) was −0.379. The “Z.CTG (standard z score)” value (dose 10.00 uM) was −0.276.
In the case of `CCN(CC)C(=O)/C(C#N)=C/c1cc(O)c(O)c([N+](=O)[O-])c1` [Entacapone], the Z.CTG [1] is reported as −0.275, the Z.CTG [2] is reported as −0.154 and the Z.CTG [3] is reported as 0.493. It also gave a Z.CTG [4] of −0.935.
For `CCCSc1nc(N[C@@H]2C[C@H]2c2ccc(F)c(F)c2)c2nnn([C@@H]3C[C@H](OCCO)[C@@H](O)[C@H]3O)c2n1` [Ticagrelor], the “Z.CTG (standard z score)” value (dose 0.08 uM) was −0.190, the “Z.CTG (standard z score)” value (dose 0.40 uM) was −0.069 and the “Z.CTG (standard z score)” value (dose 2.00 uM) was −0.645. The “Z.CTG (standard z score)” value (dose 10.00 uM) was −0.576.
Work on `CCOC(=O)[C@H]1O[C@@H]1C(=O)N[C@@H](CC(C)C)C(=O)NCCC(C)C` [Aloxistatin] yielded a Z.CTG [5] of −0.015, a Z.CTG [6] of −0.014 and a Z.CTG [7] of −0.308. For the same molecule, the Z.CTG [8] was −0.511.
With `c1ccc(CC2=NCCN2)cc1` [Tolazoline HCl] the “Z.CTG (standard z score)” value (dose 0.08 uM) was 0.585, the “Z.CTG (standard z score)” value (dose 0.40 uM) was 0.530 and the “Z.CTG (standard z score)” value (dose 2.00 uM) was −0.122. The “Z.CTG (standard z score)” value (dose 10.00 uM) was −0.496.
In the case of `Cn1c(=O)cc(N2CCC[C@@H](N)C2)n(Cc2cc(F)ccc2C#N)c1=O` [Trelagliptin], the “Z.CTG (standard z score)” value (dose 0.08 uM) is reported as 0.482, the “Z.CTG (standard z score)” value (dose 0.40 uM) is reported as −0.181 and the “Z.CTG (standard z score)” value (dose 2.00 uM) is reported as 0.120. The “Z.CTG (standard z score)” value (dose 10.00 uM) was 0.322.
Molecule `CC(=O)O[C@]1(C(C)=O)CC[C@H]2[C@@H]3C=C(Cl)C4=CC(=O)[C@@H]5C[C@@H]5[C@]4(C)[C@H]3CC[C@@]21C` [Cyproterone Acetate] has a Z.CTG [1] of −0.263, a Z.CTG [2] of 0.122 and a Z.CTG [3] of −0.341. The Z.CTG [4] was −0.414.
`CCOC(=O)C1=C(C)NC(C)=C(C(=O)OC)C1c1cccc(Cl)c1Cl` (stereo not shown) [Felodipine] gave a Z.CTG [1] of −0.187, a Z.CTG [2] of −0.763 and a Z.CTG [3] of 0.025. The Z.CTG [4] was 0.078.
In the case of `COc1c(O)cc2c(c1O)[C@@H]1O[C@H](CO)[C@@H](O)[C@H](O)[C@H]1OC2=O` [Bergenin], the Z.CTG [5] is reported as 0.687, the Z.CTG [6] is reported as 0.585 and the Z.CTG [7] is reported as 0.491. The Z.CTG [8] was 0.821.
